Here are results for eleven compounds from PMC9074662, “Discovery of dihydrooxazolo[2,3-a]isoquinoliniums as highly specific inhibitors of hCE2” (RSC Advances, 2019).

Broadly, the IC50 is the concentration at which inhibition is half-maximal. Read a high IC50 as weaker potency.

One test has as its target T1, hCE1 (Homo sapiens, UniProt P23141).
T1 construct: tissue Bioreclamation IVT lot no; X008067; host or cells: pooled human liver microsomes, 50 donors
T1 sequence (P23141 18-567): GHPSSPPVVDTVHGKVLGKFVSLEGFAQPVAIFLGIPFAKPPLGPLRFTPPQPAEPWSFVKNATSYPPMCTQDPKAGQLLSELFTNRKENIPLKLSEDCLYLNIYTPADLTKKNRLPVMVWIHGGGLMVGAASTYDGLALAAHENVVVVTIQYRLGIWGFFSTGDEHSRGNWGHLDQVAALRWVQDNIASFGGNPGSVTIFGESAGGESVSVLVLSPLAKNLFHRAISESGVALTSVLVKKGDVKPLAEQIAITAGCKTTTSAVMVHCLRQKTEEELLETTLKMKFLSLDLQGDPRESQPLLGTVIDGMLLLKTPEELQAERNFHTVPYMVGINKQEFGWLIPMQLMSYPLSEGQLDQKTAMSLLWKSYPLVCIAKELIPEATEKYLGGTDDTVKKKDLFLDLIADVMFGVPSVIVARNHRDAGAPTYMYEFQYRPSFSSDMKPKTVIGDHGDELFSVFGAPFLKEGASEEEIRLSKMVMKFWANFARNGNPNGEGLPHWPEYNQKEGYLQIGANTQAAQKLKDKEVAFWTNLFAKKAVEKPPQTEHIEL
Description: hCE1 inhibition assay (DME hydrolysis in human liver microsomes). It is filed as biochemical. As to conditions: DME probe substrate (3 μM), HLM, PBS pH 6.8, 37 °C. The source says:
We designed and synthesized more than 30 derivatives of DCZ0358. However, the five-ring quaternary ammonium component of some derivatives was unstable to decompose easily into its hydrolyzate 23b. With 12 stable compounds in hand, we conducted experiments to assay inhibitory activities against both hCE1 and hCE2 using a panel of fluorescent probe substrates.[33–36]D-Luciferin methyl ester (DME) was used as a probe substrate, and nevadensin (a specific hCE1 inhibitor) was used as a positive inhibitor control for hCE1. […] DME was used as a probe substrate for evaluating the inhibitory effects of all DCZ0358 derivatives on hCE1, while nevadensin (a specific hCE1 inhibitor) was used as a positive control.[39] Briefly, 100 μL incubation mixture containing 91 μL PBS (pH 6.8), 2 μL inhibitor at different concentrations and 5 μL HLM (1 μg mL^−1, final concentration), were pre-incubated at 37 °C for 10 min. Subsequently, 2 μL DME (3 μM final concentration, close to the Km value of DME in HLM) was added to initiate the reaction. After incubating for 10 min at 37 °C in a shaking bath, the reaction was stopped by the addition of LDR (100 μL). The microplate reader (SpectraMax® iD3, Molecular Devices, Austria) was used for luminescence measurements. The gain value of luminescence detection was set at 140 volts, and the integration time was set at 1 s. The chemical structure of DME and its hydrolytic metabolite (D-luciferin), as well as the detection conditions for D-luciferin are depicted in Table S1. ^† The negative control incubation (DMSO only) was carried out under the same conditions. The residual activity was calculated using the following formula, the residual activity (%) = (the florescence intensity in the presence of inhibitor)/the florescence intensity in negative control × 100%. The residual activities are show in Fig. S1. ^†
In general terms: Liver microsomes are vesicles of endoplasmic reticulum, rich in cytochrome P450 enzymes.

In a further test the target is T2, hCE2 (Homo sapiens, UniProt O00748).
T2 construct: tissue Bioreclamation IVT lot no; X008067; host or cells: pooled human liver microsomes, 50 donors
T2 sequence (O00748 27-559): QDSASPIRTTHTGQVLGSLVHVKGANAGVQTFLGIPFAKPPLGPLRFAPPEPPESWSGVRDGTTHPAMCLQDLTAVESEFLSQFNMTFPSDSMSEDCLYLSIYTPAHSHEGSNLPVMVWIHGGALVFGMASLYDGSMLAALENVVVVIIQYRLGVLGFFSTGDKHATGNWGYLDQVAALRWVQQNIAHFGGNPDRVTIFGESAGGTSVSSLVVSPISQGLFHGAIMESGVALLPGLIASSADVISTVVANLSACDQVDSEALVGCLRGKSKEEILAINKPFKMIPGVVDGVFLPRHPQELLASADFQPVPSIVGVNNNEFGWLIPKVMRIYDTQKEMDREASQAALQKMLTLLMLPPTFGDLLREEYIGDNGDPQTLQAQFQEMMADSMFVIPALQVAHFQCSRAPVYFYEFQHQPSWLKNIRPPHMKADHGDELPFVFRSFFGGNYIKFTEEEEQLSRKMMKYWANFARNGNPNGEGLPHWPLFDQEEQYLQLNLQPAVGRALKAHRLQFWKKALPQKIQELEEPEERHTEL
Description: hCE2 inhibition assay (FD hydrolysis in human liver microsomes). Conditions: for IC50: FD probe substrate (5 μM), HLM, PBS pH 7.4, 37 °C; for Selectivity IC50(hCE1)/IC50(hCE2): ratio of IC50 values, hCE2 over hCE1 selectivity (fold). It counts as biochemical. As to the method: In brief, 200 μL incubation mixture containing 0.1 M PBS (PH = 7.4), human liver microsomes (2 μg mL^−1, final concentration) and each inhibitor. […] After incubating for 30 min at 37 °C in a shaking bath, the reaction was stopped by the addition of acetonitrile (200 μL). The chemical structure of FD and its hydrolytic metabolite (fluorescein), as well as the detection conditions for fluorescein are depicted in Table S1. ^† The negative control incubation (DMSO only) was also carried out under the same conditions.[42] The residual activity was calculated using the formula mentioned above in hCE1 inhibition assay.

A value given as a limit tells only on which side of the number the result lay.

Regarding `COc1ccc2cc(-c3ccc4c(c3)OCO4)[n+]3c(c2c1OC)OCC3OC` (stereo not shown) [Compound 23a], it took 4.04 ± 0.4 µM to reach half-maximal inhibition at hCE1 (IC50). At hCE2, the IC50 came out at 16 ± 1.49 µM and the “Selectivity IC50(hCE1)/IC50(hCE2)” value is reported as over 0.25.

As for `COc1ccc2cc(-c3ccc4c(c3)OCO4)n(C(CO)OC)c(=O)c2c1OC` (stereo not shown) [Compound 23b], it took 36.8 ± 7.7 µM to reach half-maximal inhibition on hCE1 (IC50). For the same compound, at hCE2, half-maximal inhibition (IC50) was put at 41.7 ± 18.1 µM and the “Selectivity IC50(hCE1)/IC50(hCE2)” value is recorded as over 0.88.

`COc1ccc(COc2cc(-c3cc4ccc(OC)c(OC)c4c4[n+]3C(OC)CO4)ccc2OC)cc1` (stereo not shown) [Compound 23d, 3,9,10-trimethoxy-5-(4-methoxy-3-((4-methoxybenzyl)oxy)phenyl)-2,3-dihydrooxazolo[2,3-a]isoquinolin-4-ium] registered an IC50 against hCE1 of over 100 µM. Also, at hCE2, the IC50 is 6.89 µM and the “Selectivity IC50(hCE1)/IC50(hCE2)” value is recorded as over 14.52.

For the compound `COc1ccc(-c2cc3ccc(OC)c(OC)c3c3[n+]2C(OC)CO3)cc1OCc1ccc(S(C)(=O)=O)cc1` (stereo not shown) [Compound 23e, 3,9,10-Trimethoxy-5-(4-methoxy-3-((4-(methylsulfonyl)benzyl)oxy)phenyl)-2,3-dihydrooxazolo[2,3-a]isoquinolin-4-ium], the 50% inhibitory concentration (IC50) at hCE1 was over 100 µM. Besides, at hCE2, the IC50 came out at 11.5 ± 1.76 µM and the “Selectivity IC50(hCE1)/IC50(hCE2)” value was over 8.72.

The compound `COC(=O)c1ccc(COc2cc(-c3cc4ccc(OC)c(OC)c4c4[n+]3C(OC)CO4)ccc2OC)cc1` (stereo not shown) [Compound 23f, 3,9,10-Trimethoxy-5-(4-methoxy-3-((4-(methoxycarbonyl)benzyl)oxy)phenyl)-2,3-dihydrooxazolo[2,3-a]isoquinolin-4-ium] came in with an IC50 at hCE1 of over 100 µM. Besides, at hCE2, the IC50 came out at 5.73 ± 0.79 µM and the “Selectivity IC50(hCE1)/IC50(hCE2)” value was over 17.46.

`COc1ccc(-c2cc3ccc(OC)c(OC)c3c3[n+]2C(OC)CO3)cc1OCc1ccc(C#N)cc1` (stereo not shown) [Compound 23g, 5-(3-((4-Cyanobenzyl)oxy)-4-methoxyphenyl)-3,9,10-trimethoxy-2,3-dihydrooxazolo[2,3-a]isoquinolin-4-ium]: the concentration for half-maximal inhibition (IC50) against hCE1 was over 100 µM. Also, on hCE2, the IC50 turned out to be 3.33 ± 0.32 µM and the “Selectivity IC50(hCE1)/IC50(hCE2)” value is on record as over 30.07.

On to `COc1ccc(-c2cc3ccc(OC)c(OC)c3c3[n+]2C(OC)CO3)cc1OCc1ccc([N+](=O)[O-])cc1` (stereo not shown) [Compound 23h, 3,9,10-Trimethoxy-5-(4-methoxy-3-((4-nitrobenzyl)oxy)phenyl)-2,3-dihydrooxazolo[2,3-a]isoquinolin-4-ium], for which the values for the 50% inhibitory concentration (IC50) against hCE1 and against hCE2 were over 100 µM and 3.32 ± 0.87 µM, respectively. Moreover, the “Selectivity IC50(hCE1)/IC50(hCE2)” value on hCE2 was over 30.14.

As to `COc1ccc(-c2cc3ccc(OC)c(OC)c3c3[n+]2C(OC)CO3)cc1OCc1ccc(C(F)(F)F)cc1` (stereo not shown) [Compound 23i, 3,9,10-Trimethoxy-5-(4-methoxy-3-((4-(trifluoromethyl)benzyl)oxy)phenyl)-2,3-dihydrooxazolo[2,3-a]isoquinolin-4-ium], the IC50 at hCE1 was over 100 µM; at hCE2, 2.43 ± 0.28 µM. For the same compound, the “Selectivity IC50(hCE1)/IC50(hCE2)” value on hCE2 is over 41.22.

At hCE1, `COc1ccc(-c2cc3ccc(OC)c(OC)c3c3[n+]2C(OC)CO3)cc1OCc1ccc2cccnc2c1` (stereo not shown) [Compound 23j, 3,9,10-Trimethoxy-5-(4-methoxy-3-(quinolin-7-ylmethoxy)phenyl)-2,3-dihydrooxazolo[2,3-a]isoquinolin-4-ium] displayed an IC50 of over 100 µM. Moreover, at hCE2, it took 3.77 ± 0.25 µM to reach half-maximal inhibition (IC50) and the “Selectivity IC50(hCE1)/IC50(hCE2)” value is on record as over 26.51.

The compound `COc1ccc(-c2cc3ccc(OC)c(OC)c3c3[n+]2C(OC)CO3)cc1OCc1ccc(C)cc1` (stereo not shown) [Compound 23k, 3,9,10-Trimethoxy-5-(4-methoxy-3-((4-methylbenzyl)oxy)phenyl)-2,3-dihydrooxazolo[2,3-a]isoquinolin-4-ium] gave a half-maximal inhibitory concentration (IC50) at hCE1 of over 100 µM. Moreover, on hCE2, half-maximal inhibition (IC50) required 5.58 ± 0.94 µM and the “Selectivity IC50(hCE1)/IC50(hCE2)” value is recorded as over 17.94.

As to `COc1ccc(-c2cc(=O)c3c(O)c(OC)c(O)c(OC)c3o2)cc1` [Nevadensin, reference compound], 2.64 ± 0.22 µM corresponded to half-maximal inhibition on hCE1 (IC50).
